Drawing on PubChem BioAssay AID2060901 (Molecular Pharmacology Branch, DTP, NCI, 2025), this text covers IC50 and viability, T/C for 4 compounds.

The test system of this assay is 422866-222-R5-J1-PDC complex spheroids viability. As to the kind of experiment: Anticancer human tumor 422866-222-R5-J1-PDC patient-derived pancreatic adenocarcinoma cell line growth inhibition [RAS]. The conditions noted are these: for viability, T/C: stronger effect = lower value. The method, boiled down:
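Agents were tested in combination matrices in half-log decrements from a top concentration at or near clinical Cmax (10 microM if undetermined). Targets were multi-cell spheroids of tumour lines plus HUVEC and MSC stromal cells.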

“And” between values parts separate entries of the source, which are not always exact repeats. Equal entries are not always repeated.
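Note: spheroids exposed to compounds for 7 days.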
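Throughout, for viability, T/C: 100% = DMSO vehicle control viability.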

As usually defined, the IC50 is the concentration at which inhibition is half-maximal. A word on the viability, T/C: it is the result in the treated group divided by that in the control group, in per cent. For `CC(C)n1nc(-c2ccc3oc(N)nc3c2)c2c(N)ncnc21` + C#Cc1c(F)ccc2cc(O)cc(-c3ncc4c(N5CC6CCC(C5)N6)nc(OCC56CCCN5CC(F)C6)nc4c3F)c12, the IC50 reads like this: (curve of first compound, second compound 0.0316 µM) greater than 100 nM; (curve of first compound, second compound 0.1 µM) greater than 100 nM; (curve of first compound, second compound 0.316 µM) greater than 100 nM; (curve of first compound, second compound 1 µM) less than 0.316 nM; (curve of first compound, second compound 3.16 µM) less than 0.316 nM; (curve of first compound, second compound 10 µM) less than 0.316 nM. In addition, the viability, T/C (second compound 0.0316 µM, first compound 0.000316 µM) is 90.6%; the viability, T/C (second compound 0.0316 µM, first compound 0.001 µM) is 104%; the viability, T/C (second compound 0.0316 µM, first compound 0.00316 µM) is 73.3%; the viability, T/C (second compound 0.0316 µM, first compound 0.01 µM) was 54.9%; the viability, T/C (second compound 0.0316 µM, first compound 0.0316 µM) is 77.6%; the viability, T/C (second compound 0.0316 µM, first compound 0.1 µM) was 68.4%. The viability, T/C is, setting by setting: (second compound 0.1 µM, first compound 0.000316 µM) 62.5%; (second compound 0.1 µM, first compound 0.001 µM) 75.1%; (second compound 0.1 µM, first compound 0.00316 µM) 65.4%; (second compound 0.1 µM, first compound 0.01 µM) 54.6%; (second compound 0.1 µM, first compound 0.0316 µM) 80%; (second compound 0.1 µM, first compound 0.1 µM) 56.8%. Besides, the viability, T/C was 66.4% (second compound 0.316 µM, first compound 0.000316 µM); 62.1% (second compound 0.316 µM, first compound 0.001 µM); 60% (second compound 0.316 µM, first compound 0.00316 µM); 49.7% (second compound 0.316 µM, first compound 0.01 µM); 58.6% (second compound 0.316 µM, first compound 0.0316 µM); 61.7% (second compound 0.316 µM, first compound 0.1 µM). For the same compound, the viability, T/C runs as follows: (second compound 1 µM, first compound 0.000316 µM) 42.5%; (second compound 1 µM, first compound 0.001 µM) 37.9%; (second compound 1 µM, first compound 0.00316 µM) 28.2%; (second compound 1 µM, first compound 0.01 µM) 26.7%; (second compound 1 µM, first compound 0.0316 µM) 44%; (second compound 1 µM, first compound 0.1 µM) 48.5%. The viability, T/C runs as follows: (second compound 3.16 µM, first compound 0.000316 µM) 31.5%; (second compound 3.16 µM, first compound 0.001 µM) 26%; (second compound 3.16 µM, first compound 0.00316 µM) 25.8%; (second compound 3.16 µM, first compound 0.01 µM) 19.8%; (second compound 3.16 µM, first compound 0.0316 µM) 20.9%; (second compound 3.16 µM, first compound 0.1 µM) 19.3%. Further, the viability, T/C is, setting by setting: (second compound 10 µM, first compound 0.000316 µM) 18.8%; (second compound 10 µM, first compound 0.001 µM) 21.7%; (second compound 10 µM, first compound 0.00316 µM) 17.4%; (second compound 10 µM, first compound 0.01 µM) 15.2%; (second compound 10 µM, first compound 0.0316 µM) 18.1%; (second compound 10 µM, first compound 0.1 µM) 15.1%.

Regarding `Nc1ccn(C2OC(CO)C(O)C2(F)F)c(=O)n1` (centres undefined), the viability, T/C is, setting by setting: (compound 0.00316 µM) 91.2% [middle of 4 runs]; (compound 0.01 µM) 82.8% [middle of 4 runs]; (compound 0.0316 µM) 72.5% [middle of 4 runs]; (compound 0.1 µM) 55% [middle of 4 runs]; (compound 0.316 µM) 42.9% [middle of 4 runs]; (compound 1 µM) 37.8% [middle of 4 runs].

As for `CCN1CCN(Cc2ccc(Nc3ncc(F)c(-c4cc(F)c5nc(C)n(C(C)C)c5c4)n3)nc2)CC1` + CCn1c(-c2cc(N3CCN(C)CC3)cnc2C(C)OC)c2c3cc(ccc31)-c1csc(n1)CC(NC(=O)C1CC1C)C(=O)N1CCCC(N1)C(=O)OCC(C)(C)C2, the half-maximal inhibitory concentration (IC50) (curve of first compound, second compound 0.000949 µM) was less than 3.16 nM; the IC50 (curve of first compound, second compound 0.003 µM) is less than 3.16 nM; the IC50 (curve of first compound, second compound 0.00949 µM) is less than 3.16 nM; the IC50 (curve of first compound, second compound 0.03 µM) was less than 3.16 nM; the IC50 (curve of first compound, second compound 0.0949 µM) was less than 3.16 nM; the IC50 (curve of first compound, second compound 0.3 µM) was less than 3.16 nM. Also, the viability, T/C runs as follows: (second compound 0.000949 µM, first compound 0.00316 µM) 34.5%; (second compound 0.000949 µM, first compound 0.01 µM) 29.8%; (second compound 0.000949 µM, first compound 0.0316 µM) 26.8%; (second compound 0.000949 µM, first compound 0.1 µM) 29.4%; (second compound 0.000949 µM, first compound 0.316 µM) 29.5%; (second compound 0.000949 µM, first compound 1 µM) 43.6%. The viability, T/C is 25.6% (second compound 0.003 µM, first compound 0.00316 µM); 21.5% (second compound 0.003 µM, first compound 0.01 µM); 21.9% (second compound 0.003 µM, first compound 0.0316 µM); 22.6% (second compound 0.003 µM, first compound 0.1 µM); 25% (second compound 0.003 µM, first compound 0.316 µM); 34.7% (second compound 0.003 µM, first compound 1 µM). Further, the viability, T/C (second compound 0.00949 µM, first compound 0.00316 µM) is 18.7%; the viability, T/C (second compound 0.00949 µM, first compound 0.01 µM) was 17.4%; the viability, T/C (second compound 0.00949 µM, first compound 0.0316 µM) was 18.3%; the viability, T/C (second compound 0.00949 µM, first compound 0.1 µM) is 16.3%; the viability, T/C (second compound 0.00949 µM, first compound 0.316 µM) is 23.1%; the viability, T/C (second compound 0.00949 µM, first compound 1 µM) was 28.6%. The viability, T/C was 18.9% (second compound 0.03 µM, first compound 0.00316 µM); 22.9% (second compound 0.03 µM, first compound 0.01 µM); 17.6% (second compound 0.03 µM, first compound 0.0316 µM); 17.3% (second compound 0.03 µM, first compound 0.1 µM); 21.8% (second compound 0.03 µM, first compound 0.316 µM); 31.1% (second compound 0.03 µM, first compound 1 µM). Besides, the viability, T/C (second compound 0.0949 µM, first compound 0.00316 µM) is 19.7%; the viability, T/C (second compound 0.0949 µM, first compound 0.01 µM) is 18.4%; the viability, T/C (second compound 0.0949 µM, first compound 0.0316 µM) is 18.8%; the viability, T/C (second compound 0.0949 µM, first compound 0.1 µM) is 17.9%; the viability, T/C (second compound 0.0949 µM, first compound 0.316 µM) is 24.5%; the viability, T/C (second compound 0.0949 µM, first compound 1 µM) was 31.4%. The viability, T/C was 17.9% (second compound 0.3 µM, first compound 0.00316 µM); 19.8% (second compound 0.3 µM, first compound 0.01 µM); 20.9% (second compound 0.3 µM, first compound 0.0316 µM); 19.1% (second compound 0.3 µM, first compound 0.1 µM); 25.9% (second compound 0.3 µM, first compound 0.316 µM); 33.5% (second compound 0.3 µM, first compound 1 µM).

For `CC(C)NCC(C(=O)N1CCN(c2ncnc3c2C(C)CC3O)CC1)c1ccc(Cl)cc1` (centres undefined), the viability, T/C (compound 0.0316 µM) is 92.2% [middle of 4 runs]; the viability, T/C (compound 0.1 µM) was 93.6% [middle of 4 runs]; the viability, T/C (compound 10 µM) is 133% (2×) and 147% and 160%. Also, the IC50 (curve of compound) was greater than 10000 nM.
